# US9745261B2, “Inhibitors of the MITF molecular pathway” (THE GENERAL HOSPITAL CORPORATION, priority 2013, dated 2017)
# How the values were obtained:
# Adrenergic β1 = biological target: T1, Adrenergic β1 (Homo sapiens, UniProt P08588); assay: Radioligand binding, Adrenergic β1
# T1 construct: Eurofins Panlabs, Inc. (contract assay)
# Dopamine D3 = biological target: T2, Dopamine D3 (Homo sapiens, UniProt P35462); assay: Radioligand binding, Dopamine D3
# T2 construct: Eurofins Panlabs, Inc. (contract assay)
# Muscarinic M2 = biological target: T3, Muscarinic M2 (Homo sapiens, UniProt P08172); assay: Radioligand binding, Muscarinic M2
# T3 construct: Eurofins Panlabs, Inc
# Neuropeptide Y Y2 = biological target: T4, Neuropeptide Y Y2 (Homo sapiens, UniProt P49146); assay: Radioligand binding, Neuropeptide Y Y2
# T4 construct: Eurofins Panlabs, Inc
# [1] = biological target: T5, Serotonin (5-Hydroxytryptamine) 5-HT1A (Homo sapiens, UniProt P08908); assay: Radioligand binding, Serotonin (5-Hydroxytryptamine) 5-HT1A
# T5 construct: Eurofins Panlabs
# [2] = biological target: T6, Serotonin (5-Hydroxytryptamine) 5-HT3 (Homo sapiens, UniProt P46098); assay: Radioligand binding, Serotonin (5-Hydroxytryptamine) 5-HT3
# T6 construct: Eurofins Panlabs
# Tachykinin NK1 = biological target: T7, Tachykinin NK1 (Homo sapiens, UniProt P25103); assay: Radioligand binding, Tachykinin NK1
# T7 construct: Eurofins Panlabs
# [3] = biological target: T8, Transporter, Norepinephrine (NET) (Homo sapiens, UniProt P23975); assay: Radioligand binding, Transporter, Norepinephrine (NET)
# T8 construct: Eurofins Panlabs
# SK-MEL-5 cells = assay: SK-MEL-5 cell cytotoxicity assay (CellTiter-Glo); assay type: cell-based, human; conditions: Homo sapiens, SK-MEL-5; 24 hours, CellTiter-Glo; read-out: Target Potency IC50 (μM) SKMEL5
# Procedure: SK-MEL-5 cells were treated with compounds for 24 hours, and then cell viability was measured using the CellTiter-Glo Assay (Promega), a luciferase-based reagent that measures cellular ATP levels. The compounds were tested at different concentrations to determine IC50 values. Compounds that were active in the primary assay and toxic below 30 μM at 24 hours were considered for probe development. Data were normalized against DMSO in Genedata Screener's Assay Analyzer.
# SK-MEL-5 cells were maintained in DMEM (10% FBS, 1% Pen-Strep-Glutamine). Cells were fluid changed every 3 days and/or split upon reaching 100% confluency. For secondary assays, cells were thawed at 4 million cells per Falcon T175 flask. After 3 days, the cells were fluid changed, after 3 more days cells were passed to a Corning Triple flask (10-15 million cells) and plated after 3 days in the triple flask.
# Day 1 • 1. Plate SK-MEL-5 cells at 3,000 per well in 30 uL media (phenol red free DMEM/10% Fetal Bovine Serum/Penicillin/Streptomycin/L-Glutamine) • 2. Use Corning white 384-well, square, opaque-bottomed plates (Corning Catalog No. 8867BC)
# Day 2 • 3. Pin 100 nL compound/DMSO solution (Cybi Well) into assay plates. (For HTS, required sentinel pinning with the positive control, parthenolide (6 mM)) • 4. […]
# Day 3 • 5. […] Read on the Perkin-Elmer EnVision plate reader with luminescence (LUM) settings for 0.1 sec per well. […]
# CDK2 = assay: qPCR assay for CDK2 expression in SK-MEL-5 cells; assay type: cell-based, human; conditions: Homo sapiens; SK-MEL-5 melanoma cells, up to 35 μM
# Procedure: SK-MEL-5 cells were treated with compounds for 24 hours. Next, cells were lysed with DNase I (Ambion, from Cell to CT Lysis Mix). Lysed cells were delivered to a RT-PCR plate (Ambion, Cells to CT RT Mix) and the plates were then processed for reverse transcription to create cDNA. qPCR was performed by transferring cDNA from the RT-PCR plate to a qPCR plate containing PCR master mix (Roche, Probes Master), FAM Taqman probe/primer set for the target gene (human MITF, Applied Biosystem, 4331182 Hs01117294_m1), VIC Taqman probe/primer set for a house keeping gene (human GAPDH, Applied Biosystems C10228) and water. qPCR plates were cycled using a real-time PCR instrument (Roche, Light Cycler). Using the instrument software, a cycle call was generated when each well enters log phase amplification (Ct). The delta Ct value was determined by subtracting the Ct value of the control gene (GAPDH) from the Ct value of the target gene (MITF) in each well. The delta delta Ct value of each compound treatment was determined by averaging the delta Ct values of the mock well on each plate and subtracting that average from the delta Ct value of each compound well. […]
# • 10. […] The RT assay plates are incubated at 37° C. for 1 hour and the reverse transcriptase is inactivated by incubating the plates for 1 minute at 95° C. • 13. cDNA is stored at −80° C. until ready for qPCR analysis […]
# T6 sequence (P46098 24-478): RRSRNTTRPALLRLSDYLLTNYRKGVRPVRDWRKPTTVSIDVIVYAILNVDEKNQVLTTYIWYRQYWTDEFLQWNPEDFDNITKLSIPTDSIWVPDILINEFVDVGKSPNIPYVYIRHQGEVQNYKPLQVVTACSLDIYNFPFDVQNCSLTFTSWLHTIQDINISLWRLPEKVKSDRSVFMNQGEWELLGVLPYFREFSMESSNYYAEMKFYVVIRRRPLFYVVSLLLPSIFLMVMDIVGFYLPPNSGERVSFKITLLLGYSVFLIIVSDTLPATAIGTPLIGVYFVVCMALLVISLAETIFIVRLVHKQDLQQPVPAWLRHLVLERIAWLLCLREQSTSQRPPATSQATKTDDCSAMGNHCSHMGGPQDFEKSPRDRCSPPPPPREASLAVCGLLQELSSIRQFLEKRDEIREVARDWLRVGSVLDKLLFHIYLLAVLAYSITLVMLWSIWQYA
# T3 sequence (P08172 whole entry): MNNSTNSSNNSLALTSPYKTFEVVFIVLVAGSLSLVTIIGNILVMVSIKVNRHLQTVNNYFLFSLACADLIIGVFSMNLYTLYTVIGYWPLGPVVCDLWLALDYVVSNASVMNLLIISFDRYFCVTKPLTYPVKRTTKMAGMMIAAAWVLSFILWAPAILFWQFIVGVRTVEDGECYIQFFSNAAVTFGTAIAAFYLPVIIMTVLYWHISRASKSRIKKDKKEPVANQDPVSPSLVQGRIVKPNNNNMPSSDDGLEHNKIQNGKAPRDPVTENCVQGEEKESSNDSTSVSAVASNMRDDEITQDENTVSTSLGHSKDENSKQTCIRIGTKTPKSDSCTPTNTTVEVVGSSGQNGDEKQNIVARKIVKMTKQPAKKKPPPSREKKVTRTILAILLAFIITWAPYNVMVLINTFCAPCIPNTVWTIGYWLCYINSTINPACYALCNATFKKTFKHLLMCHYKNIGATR
# T8 sequence (P23975 whole entry): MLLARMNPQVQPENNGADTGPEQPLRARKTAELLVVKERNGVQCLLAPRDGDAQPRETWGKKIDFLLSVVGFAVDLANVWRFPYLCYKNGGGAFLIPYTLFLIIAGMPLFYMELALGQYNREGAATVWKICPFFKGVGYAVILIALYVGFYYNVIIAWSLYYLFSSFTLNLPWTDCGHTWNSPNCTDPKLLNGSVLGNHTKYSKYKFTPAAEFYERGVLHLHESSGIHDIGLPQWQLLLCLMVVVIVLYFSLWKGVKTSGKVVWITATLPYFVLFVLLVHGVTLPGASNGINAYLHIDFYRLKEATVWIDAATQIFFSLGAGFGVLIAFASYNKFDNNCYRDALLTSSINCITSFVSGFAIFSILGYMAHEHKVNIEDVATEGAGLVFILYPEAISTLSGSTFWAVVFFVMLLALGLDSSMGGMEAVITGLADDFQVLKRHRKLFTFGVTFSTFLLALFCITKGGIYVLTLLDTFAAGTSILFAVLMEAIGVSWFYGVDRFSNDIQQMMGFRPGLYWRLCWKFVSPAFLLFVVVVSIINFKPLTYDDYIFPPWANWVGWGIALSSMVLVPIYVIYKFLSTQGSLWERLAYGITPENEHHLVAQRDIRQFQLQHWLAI
# T7 sequence (P25103 whole entry): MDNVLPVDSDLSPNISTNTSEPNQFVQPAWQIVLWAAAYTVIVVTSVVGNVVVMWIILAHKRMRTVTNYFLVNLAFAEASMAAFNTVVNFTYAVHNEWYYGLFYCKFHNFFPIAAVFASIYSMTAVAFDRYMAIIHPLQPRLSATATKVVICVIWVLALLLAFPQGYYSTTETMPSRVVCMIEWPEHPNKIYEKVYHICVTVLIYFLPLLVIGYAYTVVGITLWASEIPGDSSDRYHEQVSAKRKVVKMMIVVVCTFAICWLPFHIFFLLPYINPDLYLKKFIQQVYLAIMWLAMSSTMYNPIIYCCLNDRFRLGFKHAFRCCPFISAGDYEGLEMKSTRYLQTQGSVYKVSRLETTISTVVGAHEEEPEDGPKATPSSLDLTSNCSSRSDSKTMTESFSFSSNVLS
# T5 sequence (P08908 whole entry): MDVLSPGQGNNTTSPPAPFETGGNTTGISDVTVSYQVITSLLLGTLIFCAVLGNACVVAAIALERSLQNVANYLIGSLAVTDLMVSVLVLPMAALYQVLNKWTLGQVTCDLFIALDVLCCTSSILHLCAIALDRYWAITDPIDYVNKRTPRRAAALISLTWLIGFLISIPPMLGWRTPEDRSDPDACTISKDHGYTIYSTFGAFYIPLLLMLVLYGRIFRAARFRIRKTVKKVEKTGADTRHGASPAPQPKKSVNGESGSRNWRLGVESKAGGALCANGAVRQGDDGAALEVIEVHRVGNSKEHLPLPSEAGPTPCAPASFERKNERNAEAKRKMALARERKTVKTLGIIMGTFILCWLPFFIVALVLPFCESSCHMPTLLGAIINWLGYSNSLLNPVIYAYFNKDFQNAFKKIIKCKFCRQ
# T2 sequence (P35462 whole entry): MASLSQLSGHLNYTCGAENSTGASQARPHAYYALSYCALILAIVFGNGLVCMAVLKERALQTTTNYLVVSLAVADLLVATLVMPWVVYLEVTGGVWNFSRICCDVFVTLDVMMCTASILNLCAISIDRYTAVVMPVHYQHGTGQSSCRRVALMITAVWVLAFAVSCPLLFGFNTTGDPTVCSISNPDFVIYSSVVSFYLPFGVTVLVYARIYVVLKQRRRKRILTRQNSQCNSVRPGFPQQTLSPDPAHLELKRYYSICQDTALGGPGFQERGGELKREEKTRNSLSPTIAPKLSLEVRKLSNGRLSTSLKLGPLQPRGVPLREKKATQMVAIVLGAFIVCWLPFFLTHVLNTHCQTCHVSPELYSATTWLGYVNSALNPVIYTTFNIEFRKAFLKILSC
# T1 sequence (P08588 whole entry): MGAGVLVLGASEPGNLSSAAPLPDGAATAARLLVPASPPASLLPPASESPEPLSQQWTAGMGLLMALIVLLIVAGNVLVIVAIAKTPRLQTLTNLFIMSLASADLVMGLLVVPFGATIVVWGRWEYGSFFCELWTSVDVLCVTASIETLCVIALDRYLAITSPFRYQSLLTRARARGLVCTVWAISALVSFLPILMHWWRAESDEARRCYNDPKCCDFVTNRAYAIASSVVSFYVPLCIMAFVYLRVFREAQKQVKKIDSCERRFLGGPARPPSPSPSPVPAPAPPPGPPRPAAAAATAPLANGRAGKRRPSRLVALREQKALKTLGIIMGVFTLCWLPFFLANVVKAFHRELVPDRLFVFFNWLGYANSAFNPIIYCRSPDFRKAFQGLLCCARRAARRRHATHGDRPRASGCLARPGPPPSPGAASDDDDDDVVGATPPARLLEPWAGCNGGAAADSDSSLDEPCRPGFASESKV
# T4 sequence (P49146 whole entry): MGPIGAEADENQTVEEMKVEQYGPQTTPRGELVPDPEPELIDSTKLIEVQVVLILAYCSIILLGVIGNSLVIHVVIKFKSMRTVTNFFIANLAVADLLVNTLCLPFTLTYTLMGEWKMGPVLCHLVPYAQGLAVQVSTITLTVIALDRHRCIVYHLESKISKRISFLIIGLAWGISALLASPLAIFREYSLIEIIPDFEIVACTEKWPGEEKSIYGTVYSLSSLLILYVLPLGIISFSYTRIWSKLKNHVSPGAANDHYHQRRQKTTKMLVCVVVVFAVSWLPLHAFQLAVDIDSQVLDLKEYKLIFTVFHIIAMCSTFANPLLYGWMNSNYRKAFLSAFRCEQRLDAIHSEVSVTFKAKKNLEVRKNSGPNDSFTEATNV
Structure (SMILES),inhibition at 10 µM (Adrenergic β1),inhibition at 10 µM (Dopamine D3),inhibition at 10 µM (Muscarinic M2),inhibition at 10 µM (Neuropeptide Y Y2),inhibition at 10 µM [1],inhibition at 10 µM [2],inhibition at 10 µM (Tachykinin NK1),inhibition at 10 µM [3],IC50 (SK-MEL-5 cells),EC50 (CDK2)
"NS(=O)(=O)c1ccc(NC2=CC(=O)c3ccccc3C2=O)cc1 [Example 1, 4-((1,4-Dioxo-1,4-dihydronaphthalen-2-yl)amino)benzenesulfonamide]",20%,9%,15%,5%,21%,5%,37%,8%,,
"NS(=O)(=O)c1ccc(NC2=CC(=O)c3ccccc3C2=O)cc1 [4-((1,4-dioxo-1,4-dihydronaphthalen-2-yl)amino)benzenesulfonamide]",,,,,,,,,0.75 µM,500 nM
